Results on 15 molecules are retold here after ChEMBL document CHEMBL3044912, “Nematicidal efficacy of isothiocyanates against root-knot nematode Meloidogyne javanica in cucumber” (2011).

Structures are written as SMILES. In brackets after ≈: the same amount, converted by molar mass. Activity calls are given as the source filed them. The rule behind the calls is not given here.

The subject of test [1] is Meloidogyne javanica. In words: Nematicidal activity against Meloidogyne javanica J2 (root-knot nematode) assessed as mortality rate at 5 ug/mL (vapor concentration in the air, weight/volume) at 25 +/- 2 degC measured after 48 hr. The class given is functional.
In test [2] the test system is Meloidogyne javanica. In words: Nematicidal activity against Meloidogyne javanica J2 (root-knot nematode) assessed as mortality rate at 5 ug/mL (vapor concentration in the air, weight/volume) at 25 +/- 2 degC measured after 72 hr. It counts as functional.
For test [3], the system named is Meloidogyne javanica. In words: Nematicidal activity against Meloidogyne javanica (root-knot nematode) inoculated in cucumber plant assessed as reduction in galls at 1 ml/kg of soil dosed 7 days before planting by pot experiment. It counts as functional, organism-based.
The test system of test [4] is Meloidogyne javanica. In words: Nematicidal activity against Meloidogyne javanica (root-knot nematode) inoculated in cucumber plant assessed as reduction in Meloidogyne javanica (root-knot nematode)numbers at 0.5 to 2 ml/kg of soil dosed 7 days before planting by pot experiment. The class given is functional, organism-based.
Test [5] concerns Meloidogyne javanica. In words: Nematicidal activity against Meloidogyne javanica J2 (root-knot nematode) assessed as mortality rate compound treated as vapor at 25 +/- 2 degC. Conditions: for LC50: Meloidogyne javanica. The class given is functional.
Test [6] relates to Meloidogyne javanica. In words: Nematicidal activity against Meloidogyne javanica (root-knot nematode) inoculated in cucumber plant assessed as reduction in galls at 2 ml/kg of soil dosed 7 days before planting by pot experiment. The class given is functional, organism-based.
Test [7] relates to Meloidogyne javanica. In words: Nematicidal activity against Meloidogyne javanica (root-knot nematode) inoculated in cucumber plant assessed as reduction in galls compound treated in soil 7 days before planting by pot experiment. The class given is functional.
In test [8] the test system is Meloidogyne javanica. In words: Nematicidal activity against Meloidogyne javanica (root-knot nematode) infected in cucumber field assessed as reduction in root gallling at 2 kg/ha by field plot experiment. It counts as functional, organism-based.
Test [9] relates to Meloidogyne javanica. In words: Nematicidal activity against Meloidogyne javanica (root-knot nematode) inoculated in cucumber plant assessed as reduction in galls at 0.5 ml/kg of soil dosed 7 days before planting by pot experiment. The class given is functional, organism-based.
For test [10], the system named is Meloidogyne javanica. In words: Nematicidal activity against Meloidogyne javanica (root-knot nematode) infected in cucumber field assessed as reduction in root gallling at 5 kg/ha by field plot experiment. The class given is functional, organism-based.

What is called mortality is the percentage killed. `CCCN=C=S` [PROPYL ISOTHIOCYANATE]: the mortality at 5 µg/mL was found to be 21.5% in test [1] and 40.2% in [2].

One may read the LC50 as the concentration lethal to half of the exposed cells or organisms. Consider `C=CCN=C=S` [ALLYL ISOTHIOCYANATE], for which the result in test [3], in test [6] and in [9] was Active. Besides, the inhibition entry in [4] and in test [8] was “Active” throughout. Moreover, in test [5], the LC90 was 4.94 µg/mL (≈ 49.8 µM). Besides, the LC50 in test [5] worked out at 2.76 µg/mL (≈ 27.8 µM). Further, the mortality at 5 µg/mL in test [1] is 70.1%; in [2], 90.5%. Further, in test [7], the LD50 amounted to 0.49 mL.

On to `CNC(=S)[S-].[Na+]` [METAM SODIUM], for which the LC90 in test [5] was determined as 3.65 µg/mL. Further, in test [5], the LC50 was found to be 2.12 µg/mL. Further, the mortality at 5 µg/mL came to 72.2% in test [1] and 93.4% in test [2]. Moreover, the inhibition entry in test [10] was “Active”.

Regarding `CC(N=C=S)c1ccccc1` (centres undefined) [1-PHENYLETHYL ISOTHIOCYANATE], in [5], the LC90 stood at 8.14 µg/mL (≈ 49.9 µM) and the LC50 came out at 4.24 µg/mL (≈ 26 µM). Moreover, the mortality at 5 µg/mL in [1] amounted to 58.6%. In addition, the mortality at 5 µg/mL in test [2] is 76.6%.

With `S=C=NCc1ccccc1` [BENZYL ISOTHIOCYANATE], in test [5], the LC90 was 8.55 µg/mL (≈ 57.3 µM) and the LC50 came to 4.48 µg/mL (≈ 30 µM). For the same molecule, the mortality at 5 µg/mL in [1] amounted to 32.2%. Also, the mortality at 5 µg/mL in [2] turned out to be 70.2%.

As for `CCCCN=C=S` [BUTYL ISOTHIOCYANATE], the mortality at 5 µg/mL in test [1] stood at 28.1%; in [2] it was 58.6%.

Regarding `CCN=C=S` [ETHYL ISOTHIOCYANATE], the LC90 in test [5] turned out to be 5.72 µg/mL (≈ 65.6 µM). Moreover, the LC50 in test [5] turned out to be 3.05 µg/mL (≈ 35 µM). Moreover, the mortality at 5 µg/mL in test [1] was 66.9%; in [2], 88.2%.

Regarding `N#CSCc1ccccc1` [BENZYL THIOCYANATE], in test [5], the LC90 turned out to be 8.71 µg/mL (≈ 58.4 µM) and the LC50 amounted to 4.64 µg/mL (≈ 31.1 µM). For the same molecule, the mortality at 5 µg/mL in [1] is 30.1%. Besides, the mortality at 5 µg/mL in test [2] is 66.4%.

On to `CC(C)N=C=S` [ISOPROPYL ISOTHIOCYANATE], for which the mortality at 5 µg/mL in [1] stood at 22.6%; in test [2], 42.9%.

With `CC(C)/C=C/N=C=S` [ISOAMYLENE ISOTHIOCYANATE], the mortality at 5 µg/mL in test [1] was found to be 27.4%; in test [2], 56.9%.

As to `C=CC(=O)N=C=S` [ACRYLOYL ISOTHIOCYANATE], the outcome in test [3], in test [6] and in [9] was Active. For the same molecule, the inhibition entry in test [4] and in [8] was “Active” in each case. In addition, in [5], the LC90 turned out to be 4.63 µg/mL (≈ 40.9 µM). Moreover, the LC50 in [5] is 2.53 µg/mL (≈ 22.4 µM). The mortality at 5 µg/mL in test [1] came to 71%; in test [2], 92.1%. In addition, in test [7], the LD50 came to 0.48 mL.

With `CC/C=C/N=C=S` [BUTENYL ISOTHIOCYANATE], the mortality at 5 µg/mL in test [1] stood at 20.6%; in test [2], 49.9%.

Take `S=C=NCCc1ccccc1` [PHENETHYLISOTHIOCYANATE]: in test [5], the LC90 is 6.96 µg/mL (≈ 42.6 µM) and the LC50 stood at 4.15 µg/mL (≈ 25.4 µM). For the same molecule, the mortality at 5 µg/mL in test [1] was found to be 60.8%. Also, the mortality at 5 µg/mL in test [2] amounted to 79.6%.

`S=C=Nc1ccccc1` [PHENYLISOTHIOCYANATE]: the mortality at 5 µg/mL in test [1] is 25.6%; in test [2] it was 58.2%.

Turning to `CC(C)CC(=O)N=C=S` [ISOVALERYL ISOTHIOCYANATE], the mortality at 5 µg/mL in [1] was 26.4%; in test [2] it was 58.5%.
